From patent US20110045101A1, “FUNGICIDAL SUBSTITUTED AZOLES” (E.I. Du Pont De Nemours and Company, priority 2009, published 2011)
Marks after values point to notes of the source that are not given here.

What was measured:
Format in all cases: in vivo
Details in all cases: 100 = 100% disease control
Botrytis cinerea = test: Test C: tomato Botrytis on tomato seedlings, sprayed the day before inoculation, visual disease rating
Summary of the method: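 Compounds were dissolved in acetone (3% of final volume), then suspended in 50/50 acetone/purified water containing 250 ppm polyhydric alcohol ester surfactant. Suspensions were sprayed to run-off on tomato seedlings at 200 ppm, equivalent to 500 g/ha, or at 40 ppm where marked.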

Alternaria solani = test: Test D: tomato early blight, sprayed the day before inoculation, visual disease rating
Summary of the method: (§1)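 Compounds were dissolved in acetone (3% of final volume), then suspended in 50/50 acetone/purified water with 250 ppm Trem® 014 surfactant. Suspensions at 200 ppm (some at 40 ppm) were sprayed to run-off, 200 ppm being equivalent to 500 g/ha.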

Septoria nodorum = test: Test F: wheat glume blotch on wheat seedlings, sprayed the day before inoculation, visual disease rating
Summary of the method: as §1

Septoria tritici = test: Test G: wheat leaf blotch on wheat seedlings, sprayed the day before inoculation, visual disease rating
Summary of the method: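 Visual disease ratings taken 19 days after transfer to a 20° C growth chamber, following 48 h in saturated atmosphere at 24° C. Seedlings had been sprayed to run-off one day before spore inoculation. Dose 200 ppm, or 40 ppm where starred.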

[1] = system: Puccinia recondita f. sp. tritici; test: Test H: wheat leaf rust, test suspension sprayed after inoculation of wheat seedlings, visual disease rating
Summary of the method: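 Wheat seedlings inoculated with P. recondita spores, held 24 h saturated at 20 °C, then 2 days in growth chamber at 20 °C; compound suspension (acetone/water with Trem 014) sprayed to run-off afterwards. Rated visually; 200 ppm (≈500 g/ha) unless marked *, which denotes 40 ppm.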

[2] = system: Puccinia recondita f. sp. tritici; test: Test I: wheat leaf rust on wheat seedlings, sprayed the day before inoculation, visual disease rating
Summary of the method: as §1

[3] = system: Erysiphe graminis f. sp. tritici; test: Test J: wheat powdery mildew on wheat seedlings, sprayed the day before inoculation, visual disease rating
Summary of the method: as §1

[4] = 200 ppm, 0 = no control relative to controls
[5] = 40 ppm (marked *), 0 = no control

Row | SMILES | Test C disease control rating (Botrytis cinerea; [4]) [%] | Test D disease control rating (Alternaria solani; [4]) [%] | Test F disease control rating (Septoria nodorum; [4]) [%] | Test G disease control rating (Septoria tritici; [4]) [%] | Test H disease control rating [1, 4] [%] | Test I disease control rating [2, 4] [%] | Test J disease control rating [3, 4] [%] | further results
1 | Fc1cccc(F)c1-c1c(Cl)nc(Br)n1-c1ccc(Cl)nc1 [compound 711] | 100 | 100 | 99 | 99 | 98 | 99 | 99 | –
2 | Cn1c(-c2cnc(Cl)n2-c2ccc(Cl)cc2)nc(Cl)c1Br [compound 394] | – | – | – | – | – | – | – | Test C disease control rating (Botrytis cinerea; [5]): 3* %; Test D disease control rating (Alternaria solani; [5]): 0* %; Test F disease control rating (Septoria nodorum; [5]): 0* %; Test G disease control rating (Septoria tritici; [5]): 28* %; Test H disease control rating [1, 5]: 0* %; Test I disease control rating [2, 5]: 45* %; Test J disease control rating [3, 5]: 0* %
3 | COc1cc(F)c(-c2c(Cl)nc(Cl)n2-c2ccc(C)c(Cl)c2)c(F)c1 [compound 502] | – | – | – | – | – | – | – | Test C disease control rating (Botrytis cinerea; 40 ppm (marked *)): 90* %; Test D disease control rating (Alternaria solani; 40 ppm (marked *)): 92* %; Test F disease control rating (Septoria nodorum; 40 ppm (marked *)): 60* %; Test G disease control rating (Septoria tritici; 40 ppm (marked *)): 93* %; Test H disease control rating ([1]; 40 ppm (marked *)): 0* %; Test I disease control rating ([2]; 40 ppm (marked *)): 98* %; Test J disease control rating ([3]; 40 ppm (marked *)): 100* %
4 | CCOc1cc(F)c(-c2c(Cl)ncn2-c2ccc(C)cc2)c(F)c1 [compound 723] | 100 | 99 | 0 | 97 | 66 | 68 | 95 | –
5 | COc1ccc(-c2c(Cl)nc(Cl)n2-c2ccc(Cl)c(F)c2)cn1 [compound 434] | 96 | 9 | 0 | 99 | 0 | 68 | 76 | –
6 | Fc1cccc(F)c1-c1c(Br)nc(CCBr)n1-c1ccc(Cl)cc1 [Compound 475, 4-bromo-2-(bromoethyl)-1-(4-chlorophenyl)-5-(2,6-difluorophenyl)-1H-imidazole] | – | – | – | – | – | – | – | pest or weed control at 200 ppm (Botrytis cinerea; Botrytis cinerea, 120 h, 200 ppm, 0 = no control relative to controls): 98%; pest or weed control at 200 ppm (Alternaria solani; Alternaria solani, 168 h, 200 ppm, 0 = no control relative to controls): 26%; pest or weed control at 200 ppm (Septoria nodorum; Parastagonospora nodorum, 264 h, 200 ppm, 0 = no control relative to controls): 0%; pest or weed control at 200 ppm (Septoria tritici; Zymoseptoria tritici, 504 h, 200 ppm, 0 = no control relative to controls): 92%; pest or weed control at 200 ppm ([1]; Puccinia recondita, 96 h, 200 ppm, 0 = no control relative to controls): 0%; pest or weed control at 200 ppm ([2]; Puccinia recondita, 168 h, 200 ppm, 0 = no control relative to controls): 87%; pest or weed control at 200 ppm ([3]; Blumeria graminis, 168 h, 200 ppm, 0 = no control relative to controls): 42%
7 | Fc1ccc(-n2c(Cl)nc(Br)c2-c2ccc(Cl)cc2)c(Cl)c1 [compound 324] | 99 | 99 | 82 | 93 | 9 | 97 | 99 | –
8 | Cc1nc(Cl)n(-c2ccc(Cl)nc2)c1-c1c(F)cccc1F [compound 693] | 100 | 100 | 99 | 99 | 100 | 100 | 100 | –
9 | COc1cc(OC)c(Br)c(-n2cnc(Br)c2-c2ccc(Cl)cc2F)c1Cl [compound 642] | – | – | – | – | – | – | – | Test C disease control rating (Botrytis cinerea; 40 ppm (marked *)): 97* %; Test D disease control rating (Alternaria solani; 40 ppm (marked *)): 0* %; Test F disease control rating (Septoria nodorum; 40 ppm (marked *)): 0* %; Test G disease control rating (Septoria tritici; 40 ppm (marked *)): 94* %; Test H disease control rating ([1]; 40 ppm (marked *)): 0* %; Test I disease control rating ([2]; 40 ppm (marked *)): 98* %; Test J disease control rating ([3]; 40 ppm (marked *)): 56* %
10 | COc1cc(F)c(-c2c(Cl)nc(Br)n2-c2ccc(C)c(I)c2)c(F)c1 [compound 655] | – | – | – | – | – | – | – | Test C disease control rating (Botrytis cinerea; 40 ppm (marked *)): 8* %; Test D disease control rating (Alternaria solani; 40 ppm (marked *)): 0* %; Test F disease control rating (Septoria nodorum; 40 ppm (marked *)): 0* %; Test G disease control rating (Septoria tritici; 40 ppm (marked *)): 97* %; Test H disease control rating ([1]; 40 ppm (marked *)): 49* %; Test I disease control rating ([2]; 40 ppm (marked *)): 9* %; Test J disease control rating ([3]; 40 ppm (marked *)): 0* %
11 | CCc1ccc(-n2c(C)nc(Cl)c2-c2c(F)ccc(OC)c2F)cc1 [compound 479] | 100 | 100 | 95 | 94 | 0 | 99 | 100 | –
12 | COc1cc(F)c(-n2nnc(Cl)c2-c2ccc(Cl)cc2)c(F)c1 [compound 478] | 100 | 93 | 0 | 93 | 0 | 96 | 97 | –
13 | COC(=O)c1ccc(-n2cnc(N(C)C)c2-c2c(F)cccc2F)cc1 [compound 633] | – | – | – | – | – | – | – | Test C disease control rating (Botrytis cinerea; 40 ppm (marked *)): 0* %; Test D disease control rating (Alternaria solani; 40 ppm (marked *)): 0* %; Test F disease control rating (Septoria nodorum; 40 ppm (marked *)): 0* %; Test G disease control rating (Septoria tritici; 40 ppm (marked *)): 0* %; Test H disease control rating ([1]; 40 ppm (marked *)): 0* %; Test I disease control rating ([2]; 40 ppm (marked *)): 44* %; Test J disease control rating ([3]; 40 ppm (marked *)): 0* %
14 | COc1cc(F)c(-c2c(Cl)ncn2-c2cccc(OC(F)(F)F)c2)c(F)c1 [compound 558] | 100 | 0 | 0 | 94 | 15 | 99 | 100 | –
15 | COc1ccc(F)c(-c2c(Cl)nc(Br)n2Cc2ccc(Cl)cc2)c1F [compound 289] | – | – | – | – | – | – | – | Test C disease control rating (Botrytis cinerea; 200 ppm, 0 = no control): 100%; Test D disease control rating (Alternaria solani; 200 ppm, 0 = no control): 96%; Test F disease control rating (Septoria nodorum; 200 ppm, 0 = no control): 0%; Test G disease control rating (Septoria tritici; 200 ppm, 0 = no control): 94%; Test H disease control rating ([1]; 200 ppm, 0 = no control): 11%; Test I disease control rating ([2]; 200 ppm, 0 = no control): 94%; Test J disease control rating ([3]; 200 ppm, 0 = no control): 97%
16 | COc1nn(C)c(-c2ccc(F)cc2Cl)c1-c1ccc(I)cc1 [compound 432] | 33 | 0 | 0 | 25 | 0 | 0 | 0 | –
17 | N#Cc1ccc(F)c(-c2c(CCl)nc(Cl)n2-c2ccc(Cl)nc2)c1F [compound 717] | 100 | 100 | 0 | 99 | 0 | 96 | 79 | –
18 | COc1ccc(F)c(-c2c(Cl)nc(Cl)n2Cc2ccc(Cl)cc2)c1F [compound 288] | – | – | – | – | – | – | – | Test C disease control rating (Botrytis cinerea; 200 ppm, 0 = no control): 100%; Test D disease control rating (Alternaria solani; 200 ppm, 0 = no control): 91%; Test F disease control rating (Septoria nodorum; 200 ppm, 0 = no control): 73%; Test G disease control rating (Septoria tritici; 200 ppm, 0 = no control): 94%; Test H disease control rating ([1]; 200 ppm, 0 = no control): 32%; Test I disease control rating ([2]; 200 ppm, 0 = no control): 96%; Test J disease control rating ([3]; 200 ppm, 0 = no control): 99%
